The source of these data is ChEMBL document CHEMBL1134047, “Binding of a cyclic BIV beta-Tat peptide with its TAR RNA construct” (Bioorg Med Chem Lett, 2001).

The test concerns Nucleic Acid. Briefly: Binding affinity to the ([…]) BIV TAR RNA target was determined by fluorescence binding study. It counts as nucleic-acid assay, Bos taurus.

The structures appear in SMILES notation.

In general, Kd refers to the free concentration of one partner at which half of the binding sites on the other are occupied at equilibrium, for simple one-to-one binding. Low readings indicate tighter binding, high ones weaker binding. In turn, `CC[C@H](C)[C@H](NC(=O)[C@H](CCCNC(=N)N)NC(=O)[C@H](CCCNC(=N)N)NC(=O)CNC(=O)[C@H](CCCCN)NC(=O)CNC(=O)[C@H](CCCNC(=N)N)NC(=O)[C@@H](NC(=O)CNC(=O)[C@H](CCCNC(=N)N)NC(=O)[C@H]1CCCN1C(=O)[C@H](CCCNC(=N)N)NC(=O)[C@H]1CCCN1C(=O)CNC(=O)[C@@H](N)CO)[C@@H](C)O)C(=O)N[C@@H](CCCNC(=N)N)C(=O)N[C@@H](CCCNC(=N)N)C(=O)O` came in with a Kd of 1.32 nM.

Take `CC[C@H](C)[C@@H]1NC(=O)[C@@H](CCCNC(=N)N)NC(=O)[C@H](CCCNC(=N)N)NC(=O)CNC(=O)[C@H](CCCCN)NC(=O)CNC(=O)[C@H](CCCNC(=N)N)NC(=O)[C@@H]([C@@H](C)O)NC(=O)CNC(=O)[C@@H](CCCNC(=N)N)NC(=O)[C@@H]2CCCN2C(=O)[C@@H](CCCNC(=N)N)NC(=O)[C@H]2CCCN2C(=O)CNC(=O)[C@@H](CO)NC(=O)[C@@H](N)CSSC[C@@H](C(=O)O)NC(=O)[C@H](CCCNC(=N)N)NC(=O)[C@@H](CCCNC(=N)N)NC1=O`: the Kd turned out to be 0.273 nM.

Take `CC[C@H](C)[C@H](NC(=O)[C@H](CCCN=C(N)N)NC(=O)[C@H](CCCN=C(N)N)NC(=O)CNC(=O)[C@H](CCCCN)NC(=O)CNC(=O)[C@H](CCCN=C(N)N)NC(=O)[C@@H](NC(=O)CNC(=O)[C@H](CCCN=C(N)N)NC(=O)[C@H]1CCCN1C(=O)[C@H](CCCN=C(N)N)NC(=O)[C@H]1CCCN1C(=O)CNC(=O)[C@H](CO)NC(=O)[C@@H](N)CS)[C@@H](C)O)C(=O)N[C@@H](CCCN=C(N)N)C(N)=O`: the Kd stood at 1.28 nM.
